Data published in patent US11161871B2, “Crystalline form of obeticholic acid and preparation method therefor” (Jiangsu Hengrui Medicine Co., Ltd., priority 2016, dated 2021).
Each block holds one compound with its values, some of them ahead of it.

Tests used:
[1] = Stability of crystal form E spread flat in the air under lighting, heating and high humidity, purity by HPLC; type: physicochemical; settings: for Purity detected by HPLC, 40° C.: heating 40° C.; for Purity detected by HPLC, 60° C.: heating 60° C.; for Purity detected by HPLC, RH 75%: high humidity RH 75%; for Purity detected by HPLC, RH 90%: high humidity RH 90%; for Purity detected by HPLC, Lighting: lighting 4500 Lux
Method: Samplings were carried out on Day 5 and Day 10.

[2] = Stability under placement condition (30° C., RH 65%), HPLC purity and X-ray powder diffraction; type: physicochemical; settings: for Crystal form (X-ray powder diffraction) / Purity determined by HPLC: 30° C.
Method: Samplings were carried out on Day 5, Day 10, and Day 30.

[3] = Special stability study: grinding, heating, tableting (crystal form, DSC); type: physicochemical
[4] = placebo-controlled phase III clinical trial; cited from earlier work
[5] = Drying at 80° C. of crystal product crystallized with butyl acetate; type: physicochemical; settings: crystal product from butyl acetate dried at 80° C.

Purity detected by HPLC, 40° C. ([1]; day 0): 99.7%
Purity detected by HPLC, 40° C. ([1]; day 5): 99.6%
Purity detected by HPLC, 40° C. ([1]; day 10): 99.5%
Purity detected by HPLC, 60° C. ([1]; day 0): 99.7%
Purity detected by HPLC, 60° C. ([1]; day 5): 99.4%
Purity detected by HPLC, 60° C. ([1]; day 10): 99.1%
Purity detected by HPLC, RH 75% ([1]; day 0): 99.7%
Purity detected by HPLC, RH 75% ([1]; day 5): 99.7%
Purity detected by HPLC, RH 75% ([1]; day 10): 99.7%
Purity detected by HPLC, RH 90% ([1]; day 0): 99.7%
Purity detected by HPLC, RH 90% ([1]; day 5): 99.6%
Purity detected by HPLC, RH 90% ([1]; day 10): 99.5%
Purity detected by HPLC, Lighting ([1]; day 0): 99.7%
Purity detected by HPLC, Lighting ([1]; day 5): 99.6%
Purity detected by HPLC, Lighting ([1]; day 10): 99.6%
Stability (in words) ([1]; lighting, high temperature and high humidity (summary statement)): stable
Stability (in words) ([1]; spread flat in the air, high temperature): slightly degraded
Stability (in words) ([1]; spread flat in the air, lighting/high humidity): good stability
Crystal form (X-ray powder diffraction) ([2]; Day 0): Crystal form E
Purity determined by HPLC ([2]; Day 0): 99.75%
Crystal form (X-ray powder diffraction) ([2]; Day 5): Crystal form E
Purity determined by HPLC ([2]; Day 5): 99.72%
Crystal form (X-ray powder diffraction) ([2]; Day 10): Crystal form E
Purity determined by HPLC ([2]; Day 10): 99.73%
Crystal form (X-ray powder diffraction) ([2]; Day 30): Crystal form E
Purity determined by HPLC ([2]; Day 30): 99.70%
Stability (in words) ([2]; placement condition 30° C., up to Day 30): stable under the placement condition
DSC peak ([3]; after grinding treatment for 10 minutes in a mortar under nitrogen): 94.3 °C
DSC peak ([3]; after heating treatment for 3 hours at 80° C.): 94.5 °C
DSC peak ([3]; after tableting treatment): 94.6 °C
Stability of the crystal form (in words) ([3]; ground, heated or tableted (grinding, pressure and heating)): the crystal form was stable
SMILES: CC[C@H]1[C@@H](O)[C@@H]2[C@H](CC[C@]3(C)[C@@H]([C@H](C)CCC(=O)O)CC[C@@H]23)[C@@]2(C)CC[C@@H](O)C[C@@H]12 [Crystal form E, obeticholic acid]

SMILES: CC[C@H]1[C@@H](O)[C@@H]2[C@H](CC[C@]3(C)[C@@H]([C@H](C)CCC(=O)O)CC[C@@H]23)[C@@]2(C)CC[C@@H](O)C[C@@H]12 [obeticholic acid]
Biomarkers associated with reduced risk of liver transplantation [4]: increases the level of two biomarkers associated with reduced risk of liver transplantation
Thermal stability on drying (colour change, degradation) [5]: unstable at 80 °C and has undergone degradation
